Data set [1] is described as follows: Compound cytotoxicity (CC50), XTT-based colorimetric assay. It counts as cell-based. The note with it: human; uninfected MT2 cells, day 4, XTT assay. The protocol:
Compound cytotoxicity and the corresponding CC50 values were determined using the same protocol as described in the antiviral assay except that uninfected cells were used. Cytotoxicity was assessed on day 4 in uninfected MT2 cells by using a XTT (2,3-bis[2-Methoxy-4-nitro-5-sulfophenyl]-2H-tetrazolium-5-carboxyanilide inner salt)-based colorimetric assay (Sigma-Aldrich, St Louis, Mo.).

Data set [2] relates to recombinant NL4-3 virus (nef section replaced with Renilla luciferase gene) in MT-2 cells. As to the kind of experiment: whole plant or invertebrate. It is filed as cell-based, HIV. The note with it: NL43, luciferase activity in MT-2 cells infected 4-5 days with recombinant NL4-3 virus. An excerpt: A recombinant NL4-3 proviral clone, in which a section of the nef gene was replaced with the Renilla luciferase gene, was used to make the reference virus used in these studies.
Supernatent was harvested after 2-3 days and the amount of virus present was titered in MT-2 cells using luciferase enzyme activity as a marker by measuring luciferase enzyme activity. Luciferase was quantitated using the EnduRen Live Cell Substrate from Promega (Madison, Wis.). Antiviral activities of compounds toward the recombinant virus were quantified by measuring luciferase activity in MT-2 cells infected for 4-5 days with the recombinant virus in the presence of serial dilutions of the compound.

Like-named read-outs stand apart in the source and are kept apart here. A value given as a limit tells only on which side of the number the result lay.

As usually defined, the CC50 is the concentration at which the toxic effect on the cells reaches its halfway point. In data set [1], `COC(=O)Nc1ccc(-n2ccnc2[C@H](Cc2ccccc2)NC(=O)NS(=O)(=O)c2c(F)cccc2F)cc1` [Example 50, (S)-methyl (4-(2-(1-(3-((2,6-difluorophenyl)sulfonyl)ureido)-2-phenylethyl)-1H-imidazol-1-yl)phenyl)carbamate] registered a cytotoxic concentration (CC50) at 4 day above 100 µM. Also, the EC50 in data set [2] (read-out: Activity) is 100 to 1000 nM.
`COC(=O)Nc1ccc(-n2ccnc2[C@H](Cc2ccccc2)NC(=O)NS(=O)(=O)c2cccc(Cl)c2Cl)cc1` [Example 51, (S)-methyl (4-(2-(1-(3-((2,3-dichlorophenyl)sulfonyl)ureido)-2-phenylethyl)-1H-imidazol-1-yl)phenyl)carbamate] had a cytotoxic concentration (CC50) at 4 day in data set [1] above 100 µM. In addition, the EC50 in data set [2] (read-out: Activity) was 100 to 1000 nM; in data set [2] (read-out: EC50) it was 160 nM.
`COC(=O)Nc1ccc(-n2ccnc2[C@H](Cc2ccccc2)NC(=O)NS(=O)(=O)C(C)C)cc1` [Example 52, (S)-methyl (4-(2-(1-(3-(isopropylsulfonyl)ureido)-2-phenylethyl)-1H-imidazol-1-yl)phenyl)carbamate] returned a 50% cytotoxic concentration (CC50) at 4 day in data set [1] above 100 µM. Moreover, the EC50 in data set [2] (read-out: Activity) lay within 100 to 1000 nM.
The corresponding values for `COC(=O)Nc1ccc(-n2ccnc2[C@H](Cc2ccccc2)NC(=O)NS(=O)(=O)C2CC2)cc1` [Example 53, (S)-methyl (4-(2-(1-(3-(cyclopropylsulfonyl)ureido)-2-phenylethyl)-1H-imidazol-1-yl)phenyl)carbamate] are above 100 µM and 100 to 1000 nM.
As for `COC(=O)Nc1ccc(-n2ccnc2[C@H](Cc2ccccc2)NC(=O)NS(=O)(=O)c2cccc(Cl)c2)cc1` [Example 54, (S)-methyl (4-(2-(1-(3-((3-chlorophenyl)sulfonyl)ureido)-2-phenylethyl)-1H-imidazol-1-yl)phenyl)carbamate], the CC50 at 4 day in data set [1] was above 100 µM. Moreover, the EC50 in data set [2] (read-out: Activity) is 100 to 1000 nM; in data set [2] (read-out: EC50), 150 nM.
`COC(=O)Nc1ccc(-n2ccnc2[C@H](Cc2ccccc2)NC(=O)NS(=O)(=O)c2cc(Cl)sc2Cl)cc1` [Example 55, (S)-methyl (4-(2-(1-(3-((2,5-dichlorothiophen-3-yl)sulfonyl)ureido)-2-phenylethyl)-1H-imidazol-1-yl)phenyl)carbamate] returned a CC50 at 4 day in data set [1] above 100 µM. Moreover, the EC50 in data set [2] (read-out: Activity) was below 100 nM.
In the same order, the values of `COc1ccc(-n2ccnc2[C@H](Cc2ccccc2)NC(=O)NS(=O)(=O)c2cccc(Cl)c2Cl)cc1` [Example 56, (S)-2,3-dichloro-N-((1-(1-(4-methoxyphenyl)-1H-imidazol-2-yl)-2-phenylethyl)carbamoyl)benzenesulfonamide] are above 100 µM and below 100 nM.
`CCOc1ccc(-n2ccnc2[C@H](Cc2ccccc2)NC(=O)NS(=O)(=O)c2cccc(Cl)c2Cl)cc1` [Example 57, (S)-2,3-dichloro-N-((1-(1-(4-ethoxyphenyl)-1H-imidazol-2-yl)-2-phenylethyl)carbamoyl)benzenesulfonamide] yielded a half-maximal cytotoxic concentration (CC50) at 4 day in data set [1] above 100 µM. In addition, the EC50 in data set [2] (read-out: Activity) was below 100 nM; in data set [2] (read-out: EC50), 30 nM.
Take `COc1ccc(-n2ccnc2[C@H](Cc2ccccc2)NC(=O)NS(=O)(=O)c2ccccc2F)cc1` [Example 58, (S)-2-fluoro-N-((1-(1-(4-methoxyphenyl)-1H-imidazol-2-yl)-2-phenylethyl)carbamoyl)benzenesulfonamide]: in data set [1], the CC50 at 4 day was above 33 µM. Further, in data set [2] (read-out: Activity), the EC50 is below 100 nM.
In the case of `Cc1ccccc1S(=O)(=O)NC(=O)N[C@@H](Cc1ccccc1)c1nccn1-c1ccc(-c2ccoc2)cc1` [Example 59, (S)-N-((1-(1-(4-(furan-3-yl)phenyl)-1H-imidazol-2-yl)-2-phenylethyl)carbamoyl)-2-methylbenzenesulfonamide], the CC50 at 4 day in data set [1] is above 33 µM. In data set [2] (read-out: Activity), the EC50 was below 100 nM.
`Cc1ccccc1S(=O)(=O)NC(=O)N[C@@H](Cc1ccccc1)c1nccn1-c1ccc(-c2ccsc2)cc1` [Example 60, (S)-2-methyl-N-((2-phenyl-1-(1-(4-(thiophen-3-yl)phenyl)-1H-imidazol-2-yl)ethyl)carbamoyl)benzenesulfonamide] returned a CC50 at 4 day in data set [1] above 100 µM. Moreover, the results for the EC50 in data set [2] (read-out: Activity) and in data set [2] (read-out: EC50) were below 100 nM and 30 nM, respectively.
Compound `Cc1ccccc1S(=O)(=O)NC(=O)N[C@@H](Cc1ccccc1)c1nccn1-c1ccc(-c2cnn(C)c2)cc1` [Example 61, (S)-2-methyl-N-((1-(1-(4-(1-methyl-1H-pyrazol-4-yl)phenyl)-1H-imidazol-2-yl)-2-phenylethyl)carbamoyl)benzenesulfonamide] yielded a half-maximal cytotoxic concentration (CC50) at 4 day in data set [1] above 33 µM. Moreover, the EC50 in data set [2] (read-out: Activity) was below 100 nM.
On to `Cc1ccccc1S(=O)(=O)NC(=O)N[C@@H](Cc1ccccc1)c1nccn1-c1ccc(-c2ccoc2C)cc1` [Example 62, (S)-2-methyl-N-((1-(1-(4-(2-methylfuran-3-yl)phenyl)-1H-imidazol-2-yl)-2-phenylethyl)carbamoyl)benzenesulfonamide], for which the 50% cytotoxic concentration (CC50) at 4 day in data set [1] was above 100 µM. The EC50 in data set [2] (read-out: Activity) is below 100 nM.
Regarding `COc1ccc(-c2ccc(-n3ccnc3[C@H](Cc3ccccc3)NC(=O)NS(=O)(=O)c3ccccc3C)cc2)cn1` [Example 63, (S)-N-((1-(1-(4-(6-methoxypyridin-3-yl)phenyl)-1H-imidazol-2-yl)-2-phenylethyl)carbamoyl)-2-methylbenzenesulfonamide], the CC50 at 4 day in data set [1] is above 100 µM. Besides, the EC50 in data set [2] (read-out: Activity) was 100 to 1000 nM; in data set [2] (read-out: EC50) it was 100 nM.
With `O=C(N[C@@H](Cc1ccccc1)c1nccn1-c1ccc(-c2ccoc2)cc1)NS(=O)(=O)c1ccccc1F` [Example 64, (S)-2-fluoro-N-((1-(1-(4-(furan-3-yl)phenyl)-1H-imidazol-2-yl)-2-phenylethyl)carbamoyl)benzenesulfonamide], in data set [1], the cytotoxic concentration (CC50) at 4 day is above 100 µM. Moreover, the EC50 in data set [2] (read-out: Activity) is below 100 nM.
In the case of `Cc1ccccc1S(=O)(=O)NC(=O)N[C@@H](Cc1ccccc1)c1nccn1-c1cccc(-c2ccoc2)c1` [Example 65, (S)-N-((1-(1-(3-(furan-3-yl)phenyl)-1H-imidazol-2-yl)-2-phenylethyl)carbamoyl)-2-methylbenzenesulfonamide], in data set [1], the half-maximal cytotoxic concentration (CC50) at 4 day was above 100 µM. Further, the EC50 in data set [2] (read-out: Activity) was 100 to 1000 nM.
For `Cc1ccccc1S(=O)(=O)NC(=O)N[C@@H](Cc1ccccc1)c1nccn1-c1ccc2c(c1)ncn2C` [Example 66, (S)-2-methyl-N-((1-(1-(1-methyl-1H-benzo[d]imidazol-5-yl)-1H-imidazol-2-yl)-2-phenylethyl)carbamoyl)benzenesulfonamide], the CC50 at 4 day in data set [1] was above 100 µM. The EC50 is 100 to 1000 nM in data set [2] (read-out: Activity) and 340 nM in data set [2] (read-out: EC50).
Take `Cc1ccc2cc(-n3ccnc3[C@H](Cc3ccccc3)NC(=O)NS(=O)(=O)c3ccccc3C)ccc2n1` [Example 67, (S)-2-methyl-N-((1-(1-(2-methylquinolin-6-yl)-1H-imidazol-2-yl)-2-phenylethyl)carbamoyl)benzenesulfonamide]: the half-maximal cytotoxic concentration (CC50) at 4 day in data set [1] was above 100 µM. In data set [2] (read-out: Activity), the EC50 was below 100 nM.
In the same order, the values of `Cc1ccccc1S(=O)(=O)NC(=O)N[C@@H](Cc1ccccc1)c1nccn1-c1cccc(N2CCCC2)c1` [Example 68, (S)-2-methyl-N-((2-phenyl-1-(1-(3-(pyrrolidin-1-yl)phenyl)-1H-imidazol-2-yl)ethyl)carbamoyl)benzenesulfonamide] are above 100 µM and 100 to 1000 nM.
On to `Cc1ccccc1S(=O)(=O)NC(=O)N[C@@H](Cc1ccccc1)c1nccn1-c1ccc2ccccc2c1` [Example 69, (S)-2-methyl-N-((1-(1-(naphthalen-2-yl)-1H-imidazol-2-yl)-2-phenylethyl)carbamoyl)benzenesulfonamide], for which the CC50 at 4 day in data set [1] was above 100 µM. Besides, the values for the EC50 in data set [2] (read-out: Activity) and in data set [2] (read-out: EC50) were below 100 nM and 40 nM, respectively.
In data set [1], `Cc1ccccc1S(=O)(=O)NC(=O)N[C@@H](Cc1ccccc1)c1nccn1-c1ccc2scnc2c1` [Example 70, (S)-N-((1-(1-(benzo[d]thiazol-5-yl)-1H-imidazol-2-yl)-2-phenylethyl)carbamoyl)-2-methylbenzenesulfonamide] yielded a CC50 at 4 day above 100 µM. In addition, the EC50 in data set [2] (read-out: Activity) was below 100 nM.
In the same order, the values of `O=C(N[C@@H](Cc1ccccc1)c1nccn1-c1ccc2scnc2c1)NS(=O)(=O)c1ccccc1F` [Example 71, (S)-N-((1-(1-(benzo[d]thiazol-5-yl)-1H-imidazol-2-yl)-2-phenylethyl)carbamoyl)-2-fluorobenzenesulfonamide] are above 100 µM and 100 to 1000 nM.
Regarding `Cc1nc2cc(-n3ccnc3[C@H](Cc3ccccc3)NC(=O)NS(=O)(=O)c3ccccc3C)ccc2s1` [Example 72, (S)-2-methyl-N-((1-(1-(2-methylbenzo[d]thiazol-5-yl)-1H-imidazol-2-yl)-2-phenylethyl)carbamoyl)benzenesulfonamide], the half-maximal cytotoxic concentration (CC50) at 4 day in data set [1] is above 100 µM. The EC50 in data set [2] (read-out: Activity) is below 100 nM; in data set [2] (read-out: EC50), 50 nM.
In the case of `Cc1nc2cc(-n3ccnc3[C@H](Cc3ccccc3)NC(=O)NS(=O)(=O)c3ccccc3F)ccc2s1` [Example 73, (S)-2-fluoro-N-((1-(1-(2-methylbenzo[d]thiazol-5-yl)-1H-imidazol-2-yl)-2-phenylethyl)carbamoyl)benzenesulfonamide], in data set [1], the CC50 at 4 day was above 100 µM. The EC50 in data set [2] (read-out: Activity) lay in the range of 100 to 1000 nM.
For the compound `Cc1ccccc1S(=O)(=O)NC(=O)N[C@@H](Cc1ccccc1)c1nccn1-c1ccc2sccc2c1` [Example 74, (S)-N-((1-(1-(benzo[b]thiophen-5-yl)-1H-imidazol-2-yl)-2-phenylethyl)carbamoyl)-2-methylbenzenesulfonamide], half-maximal cytotoxicity in data set [1] (CC50 at 4 day) was put at 39 µM. In addition, the EC50 in data set [2] (read-out: Activity) is below 100 nM.

The record behind these values is patent US9855230B2 (ViiV Healthcare UK (No. 5) Limited, priority 2014, dated 2018).
